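Briefly, cells in 96-well plates were exposed to five compound concentrations for 48 h, and endpoints were estimated by linear interpolation. GI50 marks 50% less growth. TGI: total growth inhibition.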
What was measured:
Assay in all cases: NCI tumour cell line growth inhibition, 48 h
786-0 renal = test system: 786-0 renal
A549 NSCLC = test system: A549 NSCLC
ACHN renal = test system: ACHN renal
CAKI-1 renal = test system: CAKI-1 renal
COLO 205 colon = test system: COLO 205 colon
DLD-1 colon = test system: DLD-1 colon
DMS 273 small cell lung = test system: DMS 273 small cell lung
EKVX NSCLC = test system: EKVX NSCLC
HCC-2998 colon = test system: HCC-2998 colon
HL-60(TB) leukemia = test system: HL-60(TB) leukemia
HOP-18 NSCLC = test system: HOP-18 NSCLC
HOP-62 NSCLC = test system: HOP-62 NSCLC
HT29 colon = test system: HT29 colon
KM12 colon = test system: KM12 colon
KM20L2 colon = test system: KM20L2 colon
LOX IMVI melanoma = test system: LOX IMVI melanoma
LXFL 529 NSCLC = test system: LXFL 529 NSCLC
M14 melanoma = test system: M14 melanoma
M19-MEL melanoma = test system: M19-MEL melanoma
MALME-3M melanoma = test system: MALME-3M melanoma
NCI-H226 lung = test system: NCI-H226 lung
NCI-H23 lung = test system: NCI-H23 lung
NCI-H460 lung = test system: NCI-H460 lung
NCI-H522 lung = test system: NCI-H522 lung
OVCAR-4 ovarian = test system: OVCAR-4 ovarian
OVCAR-5 ovarian = test system: OVCAR-5 ovarian
OVCAR-8 ovarian = test system: OVCAR-8 ovarian
RXF 393 renal = test system: RXF 393 renal
SF-268 CNS = test system: SF-268 CNS
SF-295 CNS = test system: SF-295 CNS
SF-539 CNS = test system: SF-539 CNS
SK-MEL-2 melanoma = test system: SK-MEL-2 melanoma
SK-MEL-28 melanoma = test system: SK-MEL-28 melanoma
SN12C renal = test system: SN12C renal
SNB-19 CNS = test system: SNB-19 CNS
SNB-75 CNS = test system: SNB-75 CNS
SNB-78 CNS = test system: SNB-78 CNS
SW-620 colon = test system: SW-620 colon
TK-10 renal = test system: TK-10 renal
U251 CNS = test system: U251 CNS
UACC-257 melanoma = test system: UACC-257 melanoma
UO-31 renal = test system: UO-31 renal
XF 498 CNS = test system: XF 498 CNS
A498 renal = test system: A498 renal
HCT-116 colon = test system: HCT-116 colon
HCT-15 colon = test system: HCT-15 colon
HOP-92 NSCLC = test system: HOP-92 NSCLC
IGROV1 ovarian = test system: IGROV1 ovarian
MOLT-4 leukemia = test system: MOLT-4 leukemia
OVCAR-3 ovarian = test system: OVCAR-3 ovarian
SK-MEL-5 melanoma = test system: SK-MEL-5 melanoma
SK-OV-3 ovarian = test system: SK-OV-3 ovarian
UACC-62 melanoma = test system: UACC-62 melanoma

Work on OCC1C(/C=C/c2ccoc2)ON2CCCC12 (stereo unspecified) yielded a TGI (786-0 renal) of over 100 µM, a TGI (A549 NSCLC) of over 100 µM and a TGI (ACHN renal) of over 100 µM. The TGI (CAKI-1 renal) was over 100 µM, the TGI (COLO 205 colon) was over 100 µM and the TGI (DLD-1 colon) was over 100 µM. The TGI (DMS 273 small cell lung) was over 100 µM, the TGI (EKVX NSCLC) was over 100 µM and the TGI (HCC-2998 colon) was over 100 µM. For the same molecule, the TGI (HL-60(TB) leukemia) was over 100 µM, the TGI (HOP-18 NSCLC) was 86 µM and the TGI (HOP-62 NSCLC) was over 100 µM. The TGI (HT29 colon) was over 100 µM, the TGI (KM12 colon) was over 100 µM and the TGI (KM20L2 colon) was over 100 µM. It also gave a TGI (LOX IMVI melanoma) of over 100 µM, a TGI (LXFL 529 NSCLC) of over 100 µM and a TGI (M14 melanoma) of over 100 µM. For the same molecule, the TGI (M19-MEL melanoma) was over 100 µM, the TGI (MALME-3M melanoma) was over 100 µM and the TGI (NCI-H226 lung) was over 100 µM. For the same molecule, the TGI (NCI-H23 lung) was over 100 µM, the TGI (NCI-H460 lung) was over 100 µM and the TGI (NCI-H522 lung) was over 100 µM. It also gave a TGI (OVCAR-4 ovarian) of over 100 µM, a TGI (OVCAR-5 ovarian) of over 100 µM and a TGI (OVCAR-8 ovarian) of over 100 µM. For the same molecule, the TGI (RXF 393 renal) was over 100 µM, the TGI (SF-268 CNS) was over 100 µM and the TGI (SF-295 CNS) was over 100 µM. For the same molecule, the TGI (SF-539 CNS) was over 100 µM, the TGI (SK-MEL-2 melanoma) was over 100 µM and the TGI (SK-MEL-28 melanoma) was over 100 µM. The TGI (SN12C renal) was over 100 µM, the TGI (SNB-19 CNS) was over 100 µM and the TGI (SNB-75 CNS) was over 100 µM. It also gave a TGI (SNB-78 CNS) of over 100 µM, a TGI (SW-620 colon) of over 100 µM and a TGI (TK-10 renal) of over 100 µM. It also gave a TGI (U251 CNS) of over 100 µM, a TGI (UACC-257 melanoma) of over 100 µM and a TGI (UO-31 renal) of over 100 µM. It also gave a TGI (XF 498 CNS) of over 100 µM.

Work on O=c1cccccc1[O-].O=c1cccccc1[O-].[O]=[U+2]=[O] yielded a GI50 (A498 renal) of 25.1 µM, a TGI (A498 renal) of 45.8 µM and a TGI (A549 NSCLC) of over 100 µM. It also gave a TGI (ACHN renal) of 48 µM, a TGI (CAKI-1 renal) of 56.4 µM and a TGI (COLO 205 colon) of 60.8 µM. The GI50 (DMS 273 small cell lung) was 22.6 µM, the TGI (DMS 273 small cell lung) was 58.3 µM and the TGI (EKVX NSCLC) was over 100 µM. It also gave a TGI (HCT-116 colon) of 98.4 µM, a TGI (HCT-15 colon) of over 100 µM and a GI50 (HOP-18 NSCLC) of 41 µM. The TGI (HOP-18 NSCLC) was 97 µM, the TGI (HOP-92 NSCLC) was 70.6 µM and the TGI (HT29 colon) was over 100 µM. The TGI (IGROV1 ovarian) was 50.9 µM, the GI50 (KM20L2 colon) was 32 µM and the TGI (KM20L2 colon) was over 100 µM. It also gave a TGI (LOX IMVI melanoma) of 95 µM, a GI50 (LXFL 529 NSCLC) of 28.6 µM and a TGI (LXFL 529 NSCLC) of 82.6 µM. The TGI (M14 melanoma) was 73.2 µM, the TGI (MOLT-4 leukemia) was 82 µM and the TGI (NCI-H23 lung) was over 100 µM. It also gave a TGI (NCI-H460 lung) of over 100 µM, a TGI (OVCAR-3 ovarian) of 36.8 µM and a TGI (OVCAR-4 ovarian) of 57 µM. For the same molecule, the TGI (OVCAR-8 ovarian) was 99.6 µM, the TGI (RXF 393 renal) was 41.2 µM and the TGI (SF-295 CNS) was 41.5 µM. For the same molecule, the GI50 (SF-539 CNS) was 20.6 µM, the TGI (SF-539 CNS) was 43.1 µM and the TGI (SK-MEL-28 melanoma) was 61 µM. The TGI (SK-MEL-5 melanoma) was over 100 µM, the TGI (SK-OV-3 ovarian) was 74.5 µM and the GI50 (SN12C renal) was 27.2 µM. It also gave a TGI (SN12C renal) of 63.2 µM, a TGI (SNB-19 CNS) of 82.2 µM and a GI50 (SNB-78 CNS) of 28.7 µM. It also gave a TGI (SNB-78 CNS) of 67.6 µM, a TGI (SW-620 colon) of over 100 µM and a TGI (TK-10 renal) of 57.3 µM. It also gave a GI50 (U251 CNS) of 25.9 µM, a TGI (U251 CNS) of 72 µM and a TGI (UACC-257 melanoma) of 68.5 µM. For the same molecule, the TGI (UACC-62 melanoma) was 41.6 µM, the GI50 (XF 498 CNS) was 25.7 µM and the TGI (XF 498 CNS) was 47.3 µM.

— PubChem BioAssay (NCI)
